According to ChEMBL document CHEMBL4251696, “Discovery of a Stress-Activated Protein Kinase Inhibitor for Lymphatic Filariasis” (ACS Med Chem Lett, 2018):
pIC50: −log10 of the molar value. The source made the active and inactive calls. The rule behind the calls is not given here.

Columns and labels:
Brugia malayi [1] = test: Inhibition of recombinant Brugia malayi MPK1a at 1 uM using FAM-p38tide as substrate by IMAP assay relative to control
[2] = Inhibition of recombinant Brugia malayi MPK1a using FAM-p38tide as substrate by IMAP assay
[3] = molecular target: Mitogen-activated protein kinase 14 (Homo sapiens, UniProt Q16539); test: Inhibition of human p38alpha using FAM-p38tide as substrate by IMAP assay
Sequence of Mitogen-activated protein kinase 14 (Q16539 whole entry): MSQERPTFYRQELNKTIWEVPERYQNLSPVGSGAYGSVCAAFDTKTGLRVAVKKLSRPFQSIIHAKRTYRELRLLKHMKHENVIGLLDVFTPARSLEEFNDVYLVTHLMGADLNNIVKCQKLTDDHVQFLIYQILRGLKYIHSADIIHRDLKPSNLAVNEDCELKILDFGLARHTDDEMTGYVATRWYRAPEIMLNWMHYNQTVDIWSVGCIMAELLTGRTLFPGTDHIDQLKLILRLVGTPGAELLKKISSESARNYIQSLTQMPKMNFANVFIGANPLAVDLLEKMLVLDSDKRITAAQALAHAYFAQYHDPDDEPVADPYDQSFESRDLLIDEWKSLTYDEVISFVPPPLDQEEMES

Brugia malayi [4] = test: Antifilarial activity against Brugia malayi microfilaria assessed as increase in copper-induced reduction in parasite motility at 0.1 to 1 uM measured daily for 5 days; format: functional, organism-based
Brugia malayi [5] = test: Antifilarial activity against adult Brugia malayi assessed as increase in copper-induced reduction in parasite motility at 0.1 to 1 uM measured daily for 5 days; format: functional, organism-based
[6] = Stability in human microsomes assessed as parent compound remaining after 1 hr; format: ADME, Microsome; settings: read-out: Stability
[7] = Stability in mouse microsomes assessed as parent compound remaining after 1 hr; format: ADME, Microsome; settings: read-out: Stability
CYP3A4 = CYP3A4 (Homo sapiens, UniProt P08684); test: Inhibition of CYP3A4 (unknown origin) at 5 uM relative to control; format: ADME
Sequence of CYP3A4 (P08684 whole entry): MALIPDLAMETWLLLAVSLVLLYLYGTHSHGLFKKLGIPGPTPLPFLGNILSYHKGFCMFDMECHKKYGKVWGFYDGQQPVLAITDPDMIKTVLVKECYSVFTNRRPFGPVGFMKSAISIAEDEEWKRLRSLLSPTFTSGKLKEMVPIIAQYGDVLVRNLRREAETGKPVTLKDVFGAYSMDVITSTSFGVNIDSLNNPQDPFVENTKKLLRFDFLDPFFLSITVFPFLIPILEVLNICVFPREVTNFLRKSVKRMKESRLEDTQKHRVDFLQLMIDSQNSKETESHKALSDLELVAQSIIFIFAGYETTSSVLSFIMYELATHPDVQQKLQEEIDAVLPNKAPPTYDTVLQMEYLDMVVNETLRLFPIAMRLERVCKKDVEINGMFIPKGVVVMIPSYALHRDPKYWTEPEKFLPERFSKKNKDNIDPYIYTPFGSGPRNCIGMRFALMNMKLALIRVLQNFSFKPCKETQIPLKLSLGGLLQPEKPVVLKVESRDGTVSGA

CYP2C9 = CYP2C9 (Homo sapiens, UniProt P11712); test: Inhibition of CYP2C9 (unknown origin) at 5 uM relative to control; format: ADME
Sequence of CYP2C9 (P11712 whole entry): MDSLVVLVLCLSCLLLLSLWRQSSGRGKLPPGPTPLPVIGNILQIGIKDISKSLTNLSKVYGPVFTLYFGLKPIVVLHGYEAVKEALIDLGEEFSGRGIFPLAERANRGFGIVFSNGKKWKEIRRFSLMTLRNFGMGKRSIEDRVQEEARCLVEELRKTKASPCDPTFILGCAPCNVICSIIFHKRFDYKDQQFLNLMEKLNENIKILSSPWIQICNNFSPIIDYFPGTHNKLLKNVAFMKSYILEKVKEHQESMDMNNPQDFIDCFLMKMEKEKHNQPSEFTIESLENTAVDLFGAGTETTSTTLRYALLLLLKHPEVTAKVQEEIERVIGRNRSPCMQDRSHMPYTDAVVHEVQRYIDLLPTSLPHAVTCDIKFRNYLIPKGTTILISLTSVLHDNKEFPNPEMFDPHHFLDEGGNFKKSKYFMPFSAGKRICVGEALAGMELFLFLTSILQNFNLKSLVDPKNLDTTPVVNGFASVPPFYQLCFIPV

CYP2D6 = CYP2D6 (Homo sapiens, UniProt P10635); test: Inhibition of CYP2D6 (unknown origin) at 5 uM relative to control; format: ADME
Sequence of CYP2D6 (P10635 whole entry): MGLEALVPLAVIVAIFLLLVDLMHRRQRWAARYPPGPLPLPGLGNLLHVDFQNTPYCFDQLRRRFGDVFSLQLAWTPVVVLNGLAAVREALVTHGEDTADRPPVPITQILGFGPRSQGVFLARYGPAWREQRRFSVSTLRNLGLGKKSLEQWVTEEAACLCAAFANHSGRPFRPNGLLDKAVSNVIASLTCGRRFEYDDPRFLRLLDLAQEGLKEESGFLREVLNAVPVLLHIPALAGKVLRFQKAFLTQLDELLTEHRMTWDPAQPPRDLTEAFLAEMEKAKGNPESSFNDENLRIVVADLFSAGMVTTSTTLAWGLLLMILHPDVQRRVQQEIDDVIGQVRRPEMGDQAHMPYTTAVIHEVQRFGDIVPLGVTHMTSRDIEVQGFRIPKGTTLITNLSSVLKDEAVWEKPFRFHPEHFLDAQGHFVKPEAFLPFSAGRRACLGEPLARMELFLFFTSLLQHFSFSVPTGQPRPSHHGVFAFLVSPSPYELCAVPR

CYP2C19 = CYP2C19 (Homo sapiens, UniProt P33261); test: Inhibition of CYP2C19 (unknown origin) at 5 uM relative to control; format: ADME
Sequence of CYP2C19 (P33261 whole entry): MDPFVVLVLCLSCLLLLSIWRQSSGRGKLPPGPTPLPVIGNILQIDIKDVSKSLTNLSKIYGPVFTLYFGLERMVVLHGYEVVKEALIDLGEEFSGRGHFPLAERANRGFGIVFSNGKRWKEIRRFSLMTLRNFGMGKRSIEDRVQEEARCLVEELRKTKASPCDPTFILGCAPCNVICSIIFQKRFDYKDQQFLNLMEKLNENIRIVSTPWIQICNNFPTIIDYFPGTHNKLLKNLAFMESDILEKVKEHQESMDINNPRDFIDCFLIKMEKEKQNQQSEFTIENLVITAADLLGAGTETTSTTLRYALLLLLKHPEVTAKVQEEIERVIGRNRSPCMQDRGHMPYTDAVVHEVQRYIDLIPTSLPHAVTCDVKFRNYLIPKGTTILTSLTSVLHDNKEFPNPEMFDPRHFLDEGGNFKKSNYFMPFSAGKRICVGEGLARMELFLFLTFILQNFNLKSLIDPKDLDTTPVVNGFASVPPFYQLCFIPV

CYP1A2 = molecular target: T1, CYP1A2 (Homo sapiens, UniProt P05177); test: Inhibition of CYP1A2 (unknown origin) at 5 uM relative to control; format: ADME
T1 sequence (P05177 whole entry): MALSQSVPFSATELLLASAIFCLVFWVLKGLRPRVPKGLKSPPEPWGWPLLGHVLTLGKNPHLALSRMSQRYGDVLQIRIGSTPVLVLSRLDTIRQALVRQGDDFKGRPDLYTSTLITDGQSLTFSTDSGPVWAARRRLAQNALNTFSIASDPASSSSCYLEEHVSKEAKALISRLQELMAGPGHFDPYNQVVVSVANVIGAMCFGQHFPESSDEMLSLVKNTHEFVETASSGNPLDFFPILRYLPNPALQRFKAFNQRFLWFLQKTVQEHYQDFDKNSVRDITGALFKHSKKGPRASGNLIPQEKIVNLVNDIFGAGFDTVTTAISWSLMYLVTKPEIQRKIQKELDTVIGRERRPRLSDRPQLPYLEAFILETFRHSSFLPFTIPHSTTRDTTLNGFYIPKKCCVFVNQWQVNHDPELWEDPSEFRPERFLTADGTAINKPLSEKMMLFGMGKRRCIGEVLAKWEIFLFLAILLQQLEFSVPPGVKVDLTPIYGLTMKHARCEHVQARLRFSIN

[8] = Cmax in mouse at 30 mg/kg, po; format: ADME, organism-based; parameters: dose 30 mg/kg, route oral; settings: in vivo
[9] = Tmax in mouse at 30 mg/kg, po; format: ADME, organism-based; settings: in vivo
[10] = AUC in mouse at 30 mg/kg, po; format: ADME, organism-based; settings: in vivo
Mus musculus = test: Time at which plasma concentration stays above in vitro IC50 for Brugia malayi MPK1a in mouse at 30 mg/kg, po; format: ADME, organism-based; settings: in vivo
[11] = Protein binding in mouse plasma; format: ADME, cell-free; settings: read-out: PPB (converted)
[12] = Ratio of unbound Cmax in mouse at 30 mg/kg, po to IC50 for Brugia malayi MPK1a; format: ADME, organism-based; settings: in vivo
[13] = molecular target: Mitogen-activated protein kinase 10 (Homo sapiens) (UniProt P53779); test: Inhibition of human JNK3 FAM-EGFR-derived peptide as substrate by IMAP assay
Sequence of Mitogen-activated protein kinase 10 (Homo sapiens) (P53779 whole entry, looked up): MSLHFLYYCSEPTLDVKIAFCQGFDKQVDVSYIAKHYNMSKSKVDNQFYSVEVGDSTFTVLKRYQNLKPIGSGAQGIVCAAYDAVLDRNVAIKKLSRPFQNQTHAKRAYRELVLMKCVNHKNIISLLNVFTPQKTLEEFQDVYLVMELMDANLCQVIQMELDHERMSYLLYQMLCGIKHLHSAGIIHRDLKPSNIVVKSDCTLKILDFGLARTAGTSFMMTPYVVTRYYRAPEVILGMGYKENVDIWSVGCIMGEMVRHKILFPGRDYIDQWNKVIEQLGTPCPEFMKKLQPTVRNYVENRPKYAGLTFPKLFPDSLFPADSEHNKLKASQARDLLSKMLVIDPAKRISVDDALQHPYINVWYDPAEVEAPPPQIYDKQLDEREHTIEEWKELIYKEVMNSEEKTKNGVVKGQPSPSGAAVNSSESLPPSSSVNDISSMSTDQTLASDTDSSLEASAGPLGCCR

[14] = Inhibition of sodium arsenate activated N-terminal GST-tagged Brugia malayi MPK1 expressed in HEK293F cells using FAM-p38tide as substrate by IMAP assay

Compound | inhibition (Brugia malayi [1]) [%] | pIC50 [2] | other results
Cc1onc(-c2ccccc2)c1-c1ccnc(N[C@H]2CC[C@@H](NC(=O)OC(C)(C)C)CC2)n1 | 90 | 7.03 | –
Cc1onc(-c2ccccc2)c1-c1ccnc(NC2CCN(C(=O)OC(C)(C)C)CC2)n1 | 0 | – | –
CC(=O)N[C@H]1CC[C@H](Nc2nccc(-c3c(-c4ccccc4)noc3C)n2)CC1 | 93 | 7.62 | pIC50 [3]: 7.59; Activity (Brugia malayi [4]): Active; Activity (Brugia malayi [5]): Active; remaining at 1 h [6]: 89%; remaining at 1 h [7]: 89%; inhibition at 5 µM (CYP3A4): 51%; inhibition at 5 µM (CYP2C9): 59%; inhibition at 5 µM (CYP2D6): 32%; inhibition at 5 µM (CYP2C19): 76%; inhibition at 5 µM (CYP1A2): 29%; Cmax [8]: 2960 nM; Tmax [9]: 30 min; AUC [10]: 5.3 µM·h; Time (Mus musculus): 8 h; fraction unbound [11]: 0.08; Ratio [12]: 10; pIC50 [13]: 6.77
Cc1onc(-c2ccccc2)c1-c1ccnc(NCCNC(=O)OC(C)(C)C)n1 | 0 | – | –
Cc1ccc(-n2nc(C(C)(C)C)cc2NC(=O)Nc2ccc(OCCN3CCOCC3)c3ccccc23)cc1 [DORAMAPIMOD] | – | – | pIC50 [14]: 6.85
CC(=O)N[C@H]1CC[C@@H](Nc2nccc(-c3c(-c4ccccc4)noc3C)n2)CC1 | 91 | 7.03 | –
C[S+]([O-])c1ccc(-c2nc(-c3ccc(F)cc3)c(-c3ccncc3)[nH]2)cc1 (stereo unspecified) [SB-203580] | – | – | pIC50 [14]: 6.66
Cc1onc(-c2ccccc2)c1-c1ccnc(NCCCNC(=O)OC(C)(C)C)n1 | 45 | – | –
OCCC#Cc1nc(-c2ccc(F)cc2)c(-c2ccncc2)n1CCCc1ccccc1 [RWJ-67657] | – | – | pIC50 [14]: 6.92
Cc1onc(-c2ccccc2)c1-c1ccnc(N[C@H]2CC[C@H](NC(=O)OC(C)(C)C)CC2)n1 | 83 | 6.70 | –
Cc1onc(-c2ccccc2)c1-c1ccnc(N[C@@H]2CCNC2)n1 | 64 | 6.15 | –
Cc1onc(-c2ccccc2)c1-c1ccnc(N[C@@H]2CCN(S(=O)(=O)c3ccccc3)C2)n1 | 44 | – | –

Now from value to compound, other results behind:

inhibition (Brugia malayi [1]) [%] | pIC50 [2] | Compound | other results
3 | – | CC(=O)N1CC[C@@H](Nc2nccc(-c3c(-c4cccnc4)noc3C)n2)C1 | –
78 | – | Cc1onc(-c2ccccc2)c1-c1ccnc(N[C@@H]2CCN(C(=O)OC(C)(C)C)C2)n1 | –
12 | – | Cc1onc(-c2ccccc2)c1-c1ccnc(N[C@@H]2CCN(C(=O)c3ccccc3)C2)n1 | –
70 | 6.28 | Cc1onc(-c2ccccc2)c1-c1ccnc(N[C@@H]2CCN(S(C)(=O)=O)C2)n1 | –
87 | 6.89 | CC(=O)N1CC[C@@H](Nc2nccc(-c3c(-c4ccccc4)noc3C)n2)C1 | –
45 | – | Cc1onc(-c2ccccc2)c1-c1ccnc(NC2CCCN(C(=O)OC(C)(C)C)C2)n1 (racemic) | –
28 | – | CC(=O)N1CC[C@@H](Nc2nccc(-c3c(-c4ccccc4)noc3C(F)(F)F)n2)C1 | –
7 | – | CC(=O)N1CC[C@@H](Nc2nccc(-c3c(-c4ccccn4)noc3C)n2)C1 | –
0 | 6.44 | Cc1onc(-c2ccccc2)c1-c1ccnc(N[C@H]2CCN(C(=O)OC(C)(C)C)C2)n1 | –
